Assay results: patent publication US20050197338A1, “Substituted pyrazole urea compounds for the treatment of inflammation” (priority 2003, published 2005)

These compounds were tested against T1, Rat IKK-2 (Rattus norvegicus, UniProt Q9QY78) (assay: Rat IKK-2 enzyme assay). Details: read-out: IC50 (μM) rIKK-2.
T1 sequence (Q9QY78 1-757): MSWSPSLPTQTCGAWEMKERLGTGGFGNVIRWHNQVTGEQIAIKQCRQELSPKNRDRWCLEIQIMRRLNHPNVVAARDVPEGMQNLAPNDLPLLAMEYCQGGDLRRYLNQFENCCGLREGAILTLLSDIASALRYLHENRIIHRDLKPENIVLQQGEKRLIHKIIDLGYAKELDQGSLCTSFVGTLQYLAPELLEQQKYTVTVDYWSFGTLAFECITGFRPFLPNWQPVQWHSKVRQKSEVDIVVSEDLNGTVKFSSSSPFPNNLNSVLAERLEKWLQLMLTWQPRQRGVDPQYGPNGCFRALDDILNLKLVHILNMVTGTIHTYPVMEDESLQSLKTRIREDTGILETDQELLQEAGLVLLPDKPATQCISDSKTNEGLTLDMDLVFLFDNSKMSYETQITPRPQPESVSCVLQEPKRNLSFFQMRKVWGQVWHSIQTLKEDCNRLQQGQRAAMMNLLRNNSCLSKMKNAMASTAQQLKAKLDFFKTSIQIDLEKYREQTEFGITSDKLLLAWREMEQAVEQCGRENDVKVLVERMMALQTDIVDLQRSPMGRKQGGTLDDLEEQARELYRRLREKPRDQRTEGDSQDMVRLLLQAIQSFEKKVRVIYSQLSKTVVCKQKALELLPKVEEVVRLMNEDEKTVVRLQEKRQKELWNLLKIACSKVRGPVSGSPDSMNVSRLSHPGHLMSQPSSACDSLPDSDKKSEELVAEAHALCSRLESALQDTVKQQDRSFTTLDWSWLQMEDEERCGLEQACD
Assay type: biochemical
Description: Kinase activity was measured using a biotinylated […] peptide (Gly-Leu-Lys-Lys-Glu-Arg-Leu-Leu-Asp-Asp-Arg-His-Asp-Ser32-Gly-Leu-Asp-Ser36-Met-Lys-Asp-Glu-Glu) (American Peptide Co.). 20 μL of the standard reaction mixture contained 5 μM biotinylated IκBα peptide, 0.1 μCi/reaction [γ-^33P] ATP (Amersham) (about 1×10^5 cpm), 1 μM ATP (Sigma), 1 mM DTT (Sigma), 2 mM MgCl2 (Sigma), 2 mM MnCl2 (Sigma), 10 mM NaF (Sigma), 25 mM Hepes (Sigma) buffer, pH. 7.6 and 20 μL enzyme solution (50 nM/rxn or 200 ng/rxn) and 10 μL inhibitor in a final volume of 50 μL. After incubation at 25° C. for 60 min, 150 μL resin was added to each well to stop the reaction. Resin was mixed and allowed to settle for 1 h and 50 μL of supernatant was removed to a Micolite 2 flat bottom plate (Dynex). 150 μL of scintillation fluid (Microscint 40) (Packard) was added to each well. Incorporation of [γ-^33P] ATP was measured using a Top-Count NXT (Packard).
Compound `CNC(=O)Nc1cn(-c2ccc(Br)cc2)nc1C(N)=O` [Example 16, 1-(4-bromophenyl)-4-{[(methylamino)carbonyl]amino}-1H-pyrazole-3-carboxamide] has an IC50 of 2.83 µM. `N#Cc1ccc(-c2ccc(-n3cc(NC(N)=O)c(C(N)=O)n3)cc2)cc1` [Example 100, 4-[(aminocarbonyl)amino]-1-(4′-cyano-1,1′-biphenyl-4-yl)-1H-pyrazole-3-carboxamide] gave an IC50 of 0.171 µM. `NC(=O)Nc1cn(-c2ccc(-c3ccc(F)cc3O)cc2)nc1C(N)=O` [Example 98, 4-[(aminocarbonyl)amino]-1-(4′-fluoro-2′-hydroxy-1,1′-biphenyl-4-yl)-1H-pyrazole-3-carboxamide] showed an IC50 of 0.668 µM. Compound `NC(=O)COc1cccc(-c2ccc(-n3cc(NC(N)=O)c(C(N)=O)n3)cc2)c1` [Example 175, 4-[(aminocarbonyl)amino]-1-[3′-(2-amino-2-oxoethoxy)-1,1′-biphenyl-4-yl]-1H-pyrazole-3-carboxamide] has an IC50 of 0.181 µM. For `CC(C)(C)OC(=O)COc1cccc(-c2ccc(-n3cc(NC(N)=O)c(C(N)=O)n3)cc2)c1` [Example 174, tert-butyl [(4′-{3-(aminocarbonyl)-4-[(aminocarbonyl)amino]-1H-pyrazol-1-yl}-1,1′-biphenyl-3-yl)oxy]acetate], the IC50 was 2.49 µM. With `N#CCCc1cccc(-c2ccc(-n3cc(NC(N)=O)c(C(N)=O)n3)cc2)c1` [Example 186, 4-[(aminocarbonyl)amino]-1-[3′-(2-cyanoethyl)-1,1′-biphenyl-4-yl]-1H-pyrazole-3-carboxamide] the IC50 was 0.475 µM. Compound `NC(=O)Nc1cn(-c2ccc(-c3ccc(-c4nnn[nH]4)cc3)cc2)nc1C(N)=O` [Example 187, 4-[(aminocarbonyl)amino]-1-[4′-(1H-tetrazol-5-yl)-1,1′-biphenyl-4-yl]-1H-pyrazole-3-carboxamide] has an IC50 of 0.441 µM. `N#CCOc1ccc(F)cc1-c1cccc(-n2cc(NC(N)=O)c(C(N)=O)n2)c1` [Example 94, 4-[(aminocarbonyl)amino]-1-[2′-(cyanomethoxy)-5′-fluoro-1,1′-biphenyl-3-yl]-1H-pyrazole-3-carboxamide] showed an IC50 of 0.22 µM. Compound `NC(=O)Nc1cn(-c2ccc(-c3cccc(O)c3)cc2F)nc1C(N)=O` [Example 247, 4-[(aminocarbonyl)amino]-1-(3-fluoro-3′-hydroxy-1,1′-biphenyl-4-yl)-1H-pyrazole-3-carboxamide] has an IC50 of 0.249 µM. For `NC(=O)Nc1cn(-c2ccc(-c3ccc(C(=O)OCc4ccccc4F)c(F)c3)cc2)nc1C(N)=O` [Example 162, 2-fluorobenzyl 4′-{3-(aminocarbonyl)-4-[(aminocarbonyl)amino]-1H-pyrazol-1-yl}-3-fluoro-1,1′-biphenyl-4-carboxylate], the IC50 was 13.6 µM. `CNC(=O)Nc1cn(-c2cccc(Br)c2)nc1C(N)=O` [Example 15, 1-(3-bromophenyl)-4-{[(methylamino)carbonyl]amino}-1H-pyrazole-3-carboxamide] was tested, and the IC50 was 4.45 µM. In the case of `CCOc1cc(-n2cc(NC(N)=O)c(C(N)=O)n2)ccc1Br` [Example 3, 4-[(aminocarbonyl)amino]-1-(4-bromo-3-ethoxyphenyl)-1H-pyrazole-3-carboxamide], the IC50 is reported as 0.787 µM. `NC(=O)Nc1cn(-c2ccc(-c3cc4ccccc4[nH]3)cc2)nc1C(N)=O` [Example 141, 4-[(aminocarbonyl)amino]-1-[4-(1H-indol-2-yl)phenyl]-1H-pyrazole-3-carboxamide] showed an IC50 of 4 µM. `Cc1cc(I)ccc1-n1cc(NC(N)=O)c(C(N)=O)n1` [Example 4, 1-(4-iodo-2-methyl-phenyl)-4-ureido-1H-pyrazole-3-carboxylic acid amide] was tested, and the IC50 was 1.93 µM. Compound `NC(=O)Nc1cn(-c2ccc(I)cc2)nc1C(N)=O` [Example 215, 4-[(aminocarbonyl)amino]-1-(4-iodophenyl)-1H-pyrazole-3-carboxamide] has an IC50 of 0.091 µM. `COc1ccc(-n2cc(NC(N)=O)c(C(N)=O)n2)cc1Cl` [Example 209, 4-[(Aminocarbonyl)amino]-1-(3-chloro-4-methoxyphenyl)-1H-pyrazole-3-carboxamide] showed an IC50 of 1.08 µM. In the case of `NC(=O)Nc1cn(-c2ccc(-c3cc(F)ccc3O)cc2)nc1C(N)=O` [Example 99, 4-[(aminocarbonyl)amino]-1-(5′-fluoro-2′-hydroxy-1,1′-biphenyl-4-yl)-1H-pyrazole-3-carboxamide], the IC50 is reported as 0.555 µM. With `N#CCOc1ccc(F)cc1-c1ccc(-n2cc(NC(N)=O)c(C(N)=O)n2)cc1` [Example 172, 4-[(aminocarbonyl)amino]-1-[2′-(cyanomethoxy)-5′-fluoro-1,1′-biphenyl-4-yl]-1H-pyrazole-3-carboxamide] the IC50 was 0.033 µM. Compound `NC(=O)Nc1cn(-c2ccc(Sc3ccccn3)cc2)nc1C(N)=O` [Example 205, 1-(3-carbamoyl-1-(4-(pyridin-2-ylthio)phenyl)-1H-pyrazol-4-yl)urea] has an IC50 of 0.258 µM. `NC(=O)Nc1cn(-c2ccc(Br)c(F)c2)nc1C(N)=O` [Example 225, 4-[(aminocarbonyl)amino]-1-(4-bromo-3-fluorophenyl)-1H-pyrazole-3-carboxamide] gave an IC50 of 0.292 µM. `NC(=O)Nc1cn(-c2ccc(-c3cccc(O)c3)c(Cl)c2)nc1C(N)=O` [Example 7, 4-[(aminocarbonyl)amino]-1-(2-chloro-3′-hydroxy-1,1′-biphenyl-4-yl)-1H-pyrazole-3-carboxamide] gave an IC50 of 0.121 µM. `NC(=O)Nc1cn(-c2ccc(Br)cc2)nc1C(N)=O` [Example 19, 1-(1-(4-bromophenyl)-3-carbamoyl-1H-pyrazol-4-yl)urea] was tested, and the IC50 was 0.352 µM. For `Cc1cc(-c2cccc(O)c2)ccc1-n1cc(NC(N)=O)c(C(N)=O)n1` [Example 5, 4-[(aminocarbonyl)amino]-1-(3′-hydroxy-3-methyl-1,1′-biphenyl-4-yl)-1H-pyrazole-3-carboxamide], the IC50 was 3.71 µM. `N#CCOc1cc(F)ccc1-c1ccc(-n2cc(NC(N)=O)c(C(N)=O)n2)cc1` [Example 173, 4-[(aminocarbonyl)amino]-1-[2′-(cyanomethoxy)-4′-fluoro-1,1′-biphenyl-4-yl]-1H-pyrazole-3-carboxamide] gave an IC50 of 0.105 µM. For `NC(=O)Nc1cn(-c2ccc(S(=O)(=O)c3ccc(F)cc3)cc2)nc1C(N)=O` [Example 204, 1-(1-(4-(4-fluorophenylsulfonyl)phenyl)-3-carbamoyl-1H-pyrazol-4-yl)urea], the IC50 was 0.023 µM. Compound `NC(=O)Nc1cn(-c2ccc(-c3ccc(C(=O)OCc4cccc(F)c4)c(F)c3)cc2)nc1C(N)=O` [Example 163, 3-fluorobenzyl 4′-{3-(aminocarbonyl)-4-[(aminocarbonyl)amino]-1H-pyrazol-1-yl}-3-fluoro-1,1′-biphenyl-4-carboxylate] has an IC50 of 17.4 µM. `NC(=O)Nc1cn(-c2ccc(S(=O)(=O)c3ccccc3F)cc2)nc1C(N)=O` [Example 194, 1-(1-(4-(2-fluorophenylsulfonyl)phenyl)-3-carbamoyl-1H-pyrazol-4-yl)urea] showed an IC50 of 0.173 µM. For `NC(=O)Nc1cn(-c2ccc(Br)c(C(F)(F)F)c2)nc1C(N)=O` [Example 1, 4-[(aminocarbonyl)amino]-1-[4-bromo-3-(trifluoromethyl)phenyl]-1H-pyrazole-3-carboxamide], the IC50 was 0.108 µM. `NC(=O)Nc1cn(-c2ccc(-c3ccccc3)cc2)nc1C(N)=O` [Example 101, 4-[(aminocarbonyl)amino]-1-(1,1′-biphenyl-4-yl)-1H-pyrazole-3-carboxamide] showed an IC50 of 1.89 µM.
